Source: US9604997B2, “Peri-carbinols” (ALDEXA THERAPEUTICS, INC., priority 2012, dated 2017)

Tests used:
[1] = Imine/oxaminal tautomerism of RAL-drug adducts by 1H NMR in CDCl3; type: physicochemical; conditions: in CDCl3 at 25° C.; for ΔGT, free energy change of tautomerism from imine to oxaminal (ring closed): ΔGT=−RT ln KT
Description: [formula] ΔGT: free energy change of tautomerism from imine to oxaminal. ΔGT=−RT ln KT (4) General Methods.
Preparation of the adducts RAL-1, RAL-2 and RAL-3 of RAL with Compounds 1, 2 and 3. Mixtures of 25.6 mg (0.09 mmol) RAL and 0.11 mmol of either Compound 1 or 2, or Compound 3 (2-[3-amino-6-chloroquinolin-2-yl]propan-2-ol, wherein the carbinol has no peri-interaction), in 1 mL dry benzene were stirred in the dark under argon at room temperature for 1 hr. The mixtures were evaporated to dryness and the residues evaporated twice from 2 mL benzene. The residues were dissolved in 1 mL benzene, allowed to stand 1 hr at room temperature and evaporated to dryness. The residues were evaporated from benzene (3×2 mL), redesolved in 0.5 mL dry benzene, and the solutions loaded on silica gel columns. The columns were first eluted with hexanes, and further eluted with 50:1 (v/v) hexanes-ethyl acetate. The fractions containing the adducts were evaporated to dryness to provide pure RAL-1, RAL-2 and RAL-3. The adducts were dissolved in 0.8 mL dry CDCl3, and the ratio of imine and oxaminal tautomers were determined from their ^1H NMR spectra. The values of KT and ΔGT were calculated according to equations (3) and (4).

[2] = RAL depletion kinetics by drug in rod outer segment preparation; type: biochemical, bovine; conditions: for Kapp, apparent equilibrium constant of RAL depletion by drug: rod outer segment prep containing 64 μM opsin at 37° C.; for kapp, apparent second order rate constant of RAL depletion by drug / ΔGapp, apparent free energy change of RAL depletion by drug: rod outer segment preparation containing 64 μM opsin at 37° C.; for ΔGapp, apparent free energy change of RAL depletion by drug: ΔGapp=−RT ln Kapp
Source text: The parameters associated with the analysis of RAL depletion kinetics are as follows:
[drawing 47] kapp: apparent second order rate constant of RAL depletion by drug. Kapp: apparent equilibrium constant of RAL depletion by drug.
[formula] ΔGapp: apparent free energy change of RAL depletion by drug. ΔGapp=−RT ln Kapp (2) KT: equilibrium constant of tautomerism from imine (ring opened) to oxaminal (ring closed).
Determination of kapp, Kapp and ΔGapp in rod outer segments. Frozen bovine rod outer segment preparation (64 μM of opsin) was thawed and vortexed thoroughly. A 200 μL aliquot of this sample was transferred into a 0.5 mL Eppendorf tube. To it was added 10 μL of 20 mM drug stock solution in EtOH, and the mixture vortexed for 1 min. The tube was incubated at 37° C. in a Thermo Scientific microprocessor controlled 280 series water bath for 3 min before 5 μL freshly prepared 2.4 mM RAL solution in EtOH was added (the nominal starting concentrations of drug and RAL are 1.00 mM and 60 μM, respectively). After vortexing for 1 min, the tube was incubated at 37° C. and aliquots of the reaction mixture (25 μL each) were taken periodically and added onto 10 mg of solid NaBH4 in a 0.5 mL Eppendorf tube. To the latter was added 400 μL of 2:1 (v/v) EtOH/HOAc. The reduction mixture was vortexed for 1 min and centrifuged. The supernatant was separated, and analyzed by HPLC using a standard HPLC method: • Instrument: HPLC-PE-97 • Column: Waters Sunfire C18 3.5 μm/4.6×100 mm column • Solvent A: 0.05% HCOOH/95% HPLC grade water/5% HPLC grade MeCN • Solvent B: 0.05% HCOOH HPLC grade MeCN • Pump program: 0-3 min 5-100% B, 3-30 min 100% B, 31-32 min 100%-5% B, 32-35 min 5% B • Flow rate: 1 mL/min • Detector wavelengths: 329 and 250 nm • Reference wavelength: 400 nm • Injection volume: 50 μL.
The RAL depletion percentages were calculated by normalization of retinol (ROL) and RAL-drug peak integrals, which were then plotted against reaction time. Least squares fit of the RAL depletion plot according to pseudo-first order kinetics yielded observed first order rate constant kobsd, and kapp is calculated according to kobsd=kapp[drug]. Kapp was calculated from the equilibrium concentrations of free RAL, free drug and RAL-drug according to equation (1). ΔGapp was calculated according to equation (2).

| KT, equilibrium constant of tautomerism from imine to oxaminal (ring closed) [1] | ΔGT, free energy change of tautomerism from imine to oxaminal (ring closed) [1] | Structure (SMILES) | Kapp, apparent equilibrium constant of RAL depletion by drug [2] | kapp, apparent second order rate constant of RAL depletion by drug [2] | ΔGapp, apparent free energy change of RAL depletion by drug [2] |
| --- | --- | --- | --- | --- | --- |
| >>1000 | <<−4 kcal/mol | CC(C)(O)c1c(N)cnc2ccc(Cl)c(F)c12 [Compound 1, 2-(3-amino-6-chloro-5-fluoroquinolin-4-yl)propan-2-ol] | >2 × 10^7 | 0.8556 M⁻¹ s⁻¹ | <-10 kcal/mol |
| >>1000 | <<−4 kcal/mol | CC(C)(O)c1c(N)cnc2ccc(Cl)cc12 [Compound 2, 2-(3-amino-6-chloroquinolin-4-yl)propan-2-ol] | >2 × 10^7 | 0.5278 M⁻¹ s⁻¹ | <-10 kcal/mol |
| 1.3 | -0.155 kcal/mol | CC(C)(O)c1nc2ccc(Cl)cc2cc1N [Compound 3, 2-[3-amino-6-chloroquinolin-2-yl]propan-2-ol, reference compound] | 1.55 × 10^5 | 0.9917 M⁻¹ s⁻¹ | -7.4 kcal/mol |
